The source of these data is article PMC8932751 (Clinical and Translational Science, 2021).

The conditions of data set [1]: investigation cohort, 70 patients.
For data set [2] the following is noted: atorvastatin and its metabolites; cited from earlier work.

Turning to `CC(C)c1c(C(=O)Nc2ccccc2)c(-c2ccccc2)c(-c2ccc(F)cc2)n1CC[C@@H](O)C[C@@H](O)CC(=O)O` [atorvastatin], for the setting “exponential residual error”, the “σ (SD), residual variability” value turned out to be 0.085. Moreover, for the setting “final PopPK model”, the “ωQ (SD), between-subject variability” value is reported as 0.715; the “ωVc (SD), between-subject variability” value was 1.18; the “ωVp (SD), between-subject variability” value is given as 0.508. Further, the “patients with myalgia at any time during follow-up” value in data set [1] is recorded as 8.6%. Moreover, the “fraction of the oral dose excreted in urine” value in data set [2] was “less than 1%”.
